Source: BindingDB's records for doi:10.7270/Q2RN3686 (Emory University, 2009)

Target: Eukaryotic translation initiation factor 4 gamma 1 (Homo sapiens, UniProt Q04637)
Test: blockers of eIF4G binding by eIF4E – biochemical, TR-FRET, dose response (AID 855)

Sequence of Eukaryotic translation initiation factor 4 gamma 1 (Q04637 whole entry): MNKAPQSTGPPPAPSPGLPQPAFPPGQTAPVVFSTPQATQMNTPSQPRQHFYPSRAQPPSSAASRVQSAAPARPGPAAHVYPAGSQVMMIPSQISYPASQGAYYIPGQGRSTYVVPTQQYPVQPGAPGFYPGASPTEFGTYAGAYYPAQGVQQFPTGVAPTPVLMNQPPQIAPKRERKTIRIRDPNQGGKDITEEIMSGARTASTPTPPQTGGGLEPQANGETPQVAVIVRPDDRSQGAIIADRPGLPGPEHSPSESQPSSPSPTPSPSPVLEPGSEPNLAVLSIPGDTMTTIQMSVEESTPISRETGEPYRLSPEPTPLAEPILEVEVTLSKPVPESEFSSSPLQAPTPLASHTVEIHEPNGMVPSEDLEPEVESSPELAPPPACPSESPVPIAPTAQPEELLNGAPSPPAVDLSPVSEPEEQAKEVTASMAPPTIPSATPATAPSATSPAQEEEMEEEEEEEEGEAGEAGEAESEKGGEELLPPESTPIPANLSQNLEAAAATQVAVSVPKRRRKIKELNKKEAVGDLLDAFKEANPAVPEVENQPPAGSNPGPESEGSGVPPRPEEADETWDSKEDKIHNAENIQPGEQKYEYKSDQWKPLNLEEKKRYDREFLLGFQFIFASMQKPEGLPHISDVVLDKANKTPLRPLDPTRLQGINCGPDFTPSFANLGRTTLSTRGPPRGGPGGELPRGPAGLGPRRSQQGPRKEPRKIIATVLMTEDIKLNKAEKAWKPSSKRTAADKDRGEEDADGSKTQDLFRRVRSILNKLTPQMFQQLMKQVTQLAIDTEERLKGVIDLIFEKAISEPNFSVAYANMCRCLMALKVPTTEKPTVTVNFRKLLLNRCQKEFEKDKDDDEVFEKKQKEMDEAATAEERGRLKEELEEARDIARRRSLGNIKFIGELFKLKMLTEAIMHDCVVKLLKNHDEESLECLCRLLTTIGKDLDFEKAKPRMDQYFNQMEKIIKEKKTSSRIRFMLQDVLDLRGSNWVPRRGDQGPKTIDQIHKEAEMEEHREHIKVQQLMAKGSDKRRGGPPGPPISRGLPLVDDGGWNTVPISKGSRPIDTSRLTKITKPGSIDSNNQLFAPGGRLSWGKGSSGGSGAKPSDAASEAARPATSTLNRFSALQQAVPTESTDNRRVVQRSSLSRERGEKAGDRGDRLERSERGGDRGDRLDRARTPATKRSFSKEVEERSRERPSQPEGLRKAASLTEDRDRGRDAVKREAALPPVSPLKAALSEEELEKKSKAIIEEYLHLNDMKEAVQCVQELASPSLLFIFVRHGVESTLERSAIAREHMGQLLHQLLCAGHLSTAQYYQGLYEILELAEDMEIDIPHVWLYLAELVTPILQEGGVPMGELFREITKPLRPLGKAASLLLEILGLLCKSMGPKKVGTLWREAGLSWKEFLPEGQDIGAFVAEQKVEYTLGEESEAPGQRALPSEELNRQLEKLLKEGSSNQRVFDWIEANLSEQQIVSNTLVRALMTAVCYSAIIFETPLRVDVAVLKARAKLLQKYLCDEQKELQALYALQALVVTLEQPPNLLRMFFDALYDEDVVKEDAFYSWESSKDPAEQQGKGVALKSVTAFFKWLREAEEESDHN

| SMILES | IC50 [µM] |
| --- | --- |
| COc1ccc(Cc2c(O)n(-c3ccccc3)c(=O)[nH]c2=O)c(OC)c1 | > 64 |
| C=c1cc2[nH]c(=O)c(=Cc3cc(C)n(-c4ccccc4)c3C)c(=N)n2o1 | > 64 |
| COc1ccc(-c2cnnc(N=NCc3ccc(-c4ccc([N+](=O)[O-])cc4)o3)n2)cc1 | 50 |
| Oc1cc(N2CCN(Cc3ccc4c(c3)OCO4)CC2)c(O)n1-c1cccc(Cl)c1 [1-(3-chlorophenyl)-3-(4-piperonylpiperazino)pyrrolidine-2,5-quinone] | > 64 |
| O=C1Nc2ccc([N+](=O)[O-])cc2/C1=N/NC(=O)c1cc(-c2ccccc2Cl)nc2ccccc12 [2-(2-chlorophenyl)-N'-(2-keto-5-nitro-indol-3-yl)cinchoninohydrazide] | > 64 |
| CC(=O)C1=C(c2ccccc2)OC(=N)C(C#N)C1c1ccc(O)cc1 (configuration not stated) [2-azanyl-5-ethanoyl-4-(4-hydroxyphenyl)-6-phenyl-4H-pyran-3-carbonitrile] | > 64 |
| CC(C)(C)c1[nH]nc2c1C(c1ccc(OC(=O)c3ccco3)cc1)C(C#N)C(=N)O2 (configuration not stated) [2-furancarboxylic acid [4-(6-amino-3-tert-butyl-5-cyano-2,4-dihydropyrano[2,3-c]pyrazol-4-yl)phenyl] ester] | > 64 |
| CSc1ccc(CN=Nc2cccc(C(=O)O)c2)cc1 [3-[(N'E)-N'-[4-(methylthio)benzylidene]hydrazino]benzoic acid] | 50 |
| O=C1CCCC(=O)C1C(C#Cc1ccccc1)C1C(=O)CCCC1=O [3-hydroxy-2-[1-(2-hydroxy-6-keto-cyclohexen-1-yl)-3-phenyl-prop-2-ynyl]cyclohex-2-en-1-one] | > 64 |
| Cc1cc(CN=Nc2ccc([N+](=O)[O-])cn2)c(C)n1-c1ccc(C(=O)O)cc1 [4-{2,5-dimethyl-3-[2-(5-nitro-2-pyridinyl)carbonohydrazonoyl]-1H-pyrrol-1-yl}benzoic acid] | 50 |
| O=C1CCCC2=Nc3[nH]c(=S)[nH]c(=O)c3C(c3ccc(Br)cc3)C12 (configuration not stated) [5-(4-bromophenyl)-2-thioxo-2,3,5,8,9,10-hexahydropyrimido[4,5-b]quinoline-4,6(1H,7H)-dione] | > 64 |
| NC(=NNC=c1ccc(=C2C=CC(=O)C(C(=O)O)=C2)o1)N[N+](=O)[O-] [5-(5-{2-[amino(nitroimino)methyl]carbonohydrazonoyl}-2-furyl)-2-hydroxybenzoic acid] | 63.6 |
| CC(=O)C1=C(C)N=C(SCc2ccc(C#N)cc2)C(C#N)C1c1ccco1 (configuration not stated) [5-acetyl-2-[(4-cyanophenyl)methylsulfanyl]-4-(furan-2-yl)-6-methyl-1,4-dihydropyridine-3-carbonitrile] | > 64 |
| COc1ccc(Cn2c(Nc3cc(Cl)ccc3OC)c3[nH]cccc-3c2=O)cc1 [7-[(5-chloranyl-2-methoxy-phenyl)amino]-6-[(4-methoxyphenyl)methyl]-7H-pyrrolo[3,4-b]pyridin-5-one] | 14.4 |
| CN(C)[C@@H]1C(=O)C(C(N)=O)C(=O)[C@@]2(O)C(=O)C3C(=O)c4c(O)cccc4[C@@](C)(O)[C@H]3[C@H](O)[C@@H]12 (stereo partly drawn) [(2E,4S,4aR,5S,5aR,6S,12aS)-2-[azanyl(oxidanyl)methylidene]-4-(dimethylamino)-6-methyl-5,6,10,11,12a-pentakis(oxidanyl)-4,4a,5,5a-tetrahydrotetracene-1,3,12-trione] | 50 |
| CN(C)[C@@H]1C(=O)C(C(=O)NCN2CCCC2)C(=O)[C@@]2(O)C(=O)C3C(=O)c4c(O)cccc4[C@@](C)(O)C3CC12 (stereo partly drawn) [(2Z,4S,6S,12aS)-4-(dimethylamino)-6,10,11,12a-tetrahydroxy-2-[hydroxy-(1-pyrrolidinylmethylamino)methylidene]-6-methyl-4,4a,5,5a-tetrahydrotetracene-1,3,12-trione] | 12.3 |
| COc1ccc2nc(N3C(=O)C(=C4C(=O)Nc5ccccc54)NC3=S)sc2c1 [(3Z)-3-[1-(6-methoxy-1,3-benzothiazol-2-yl)-5-oxidanylidene-2-sulfanylidene-imidazolidin-4-ylidene]-1H-indol-2-one] | > 64 |
| O=C1C=CC(CN=Nc2nccs2)C=C1[N+](=O)[O-] (configuration not stated) [(4Z)-2-nitro-4-[(2-thiazolylhydrazo)methylidene]-1-cyclohexa-2,5-dienone] | 10.8 |
| COc1cc(C2C(C(=O)c3ccccc3)C(=O)C(=O)N2c2ccccn2)ccc1O (configuration not stated) [(4Z)-5-(3-methoxy-4-oxidanyl-phenyl)-4-[oxidanyl(phenyl)methylidene]-1-pyridin-2-yl-pyrrolidine-2,3-dione] | 50 |
| O=C1N=C(Nc2ccc(O)cc2)SC1=C1C(=O)Nc2ccccc21 [(5Z)-2-[(4-hydroxyphenyl)amino]-5-(2-oxidanylidene-1H-indol-3-ylidene)-1,3-thiazol-4-one] | 50 |
| O=[N+]([O-])c1cc(Br)c(O)c(CN=Nc2nnnn2-c2cccc3ccccc23)c1 [(6E)-2-bromo-6-[[2-(1-naphthalen-1-yltetrazol-5-yl)hydrazinyl]methylidene]-4-nitrocyclohexa-2,4-dien-1-one] | > 64 |
| O=NCC(=O)Nc1ccc(F)cc1 [MLS000036190] | > 64 |
| Cc1ccc(/C=C/C(=O)C2=C(O)N(C)C3(C)CC2c2ccccc2O3)cc1 (configuration not stated) [MLS000519940] | > 64 |
| Cc1ccc(-n2c(C)cc(CN=Nc3ccc([N+](=O)[O-])cn3)c2C)cc1 [MLS000552475] | > 64 |
| Cc1ccccc1C(=O)Nc1cccc(C(=O)N/N=C/C2C=C(Cl)C=C([N+](=O)[O-])C2=O)c1 (configuration not stated) [N-(3-{[(2E)-2-(5-chloro-2-hydroxy-3-nitrobenzylidene)hydrazino]carbonyl}phenyl)-2-methylbenzamide] | 50 |
| Cc1ccc(Nc2c3[nH]cccc-3c(=O)n2-c2ccccc2C)cc1C [SMR000028201] | 9.59 |
| C[N+](C)(C)c1ccc(CN=Nc2nc(Cl)c(C#N)c(Cl)c2Cl)cc1 [trimethyl-[4-[[(3,4,6-trichloro-5-cyanopyridin-2-yl)hydrazinylidene]methyl]phenyl]azanium;iodide] | > 64 |
